These results are taken from US11213514B2, “Alpha-1-adrenergic receptor agonist therapy” (The Regents of the University of California, priority 2016, dated 2022).

For series [1], the system named is mouse heart ATP content. As for the experimental part: FIGS. 3A-3E. […] Heart tissue was collected immediately after sacrifice on Day 7. FIG. 3A. […] Gene set analysis was performed on the DESeq2-derived statistics from an omnibus test across these four categories. […] FIG. 3B. RNA abundance for all sequenced cytochrome C oxidase subunits (25 genes), mitochondrial complex I subunits (42 genes), and ATP synthase subunits (17 genes) was aggregated by group and compared to vehicle treatment. FIG. 3C. Quantitative RT-PCR for peroxisome proliferator-activated receptor gamma coactivator 1-alpha (PGC1α) was performed on mouse heart tissue (n in individual bars) FIG. 3D. ATP content was measured in freshly harvested mouse heart tissue (total n in individual bars), then quantified relative to protein content. […] FIG. 3E. Thiobarbituric acid reactive substances (TBARS) were assayed in mouse myocardium.
(FIG. 3B). […] (FIG. 3C).
Mouse hearts were removed and immediately processed for luciferin-luciferase ATP assay (ThermoFisher Scientific A22066) according to manufacturer instruction. Tissue was homogenized and heated at 95 C for 7 minutes, centrifuged at 14000 rpm for 5 minutes. Total protein in the supernatant was quantified using the Bradford Assay (Pierce #23200). Luminescence was measured at 560 nm.

In series [2] the test system is wild type mice. Put plainly: Tail cuff blood pressure and heart rate in uninjured mice. As to conditions: any dose 1-100 μg/kg/day, gavage twice daily for 5 days. Format: in vivo, mouse. As for the experimental part:
(§1) FIGS. 1A-1C. […] FIG. 1A. Blood pressure (BP) and heart rate (HR) were measured non-invasively in male mice for 10 consecutive days using a CODA Volume Pressure Recording tail cuff system (Kent Scientific). All daily values represent the average of at least 20 cuff inflations. Mice were acclimatized to the apparatus for the first 5 days, during which no drug was administered. […] FIG. 1B. […] Heart weight (HW, in mg) was indexed to tibia length (TL, in mm). FIG. 1C. Quantitative RT-PCR was performed using heart tissue snap frozen at the time of sacrifice. Target transcripts (ANP=atrial natriuretic peptide; MHCβ=myosin heavy chain beta; α-skAct=alpha skeletal actin) were quantified relative to two standard transcripts (Polr2a=DNA-directed RNA polymerase II, subunit A; TBP=TATA-binding protein).
Untreated mice were trained on the tail cuff apparatus daily for 5 days.
Tail cuff blood pressure (BP) and heart rate (HR) were obtained on awake mice by repeated measurements using a CODA Volume Pressure Recording tail cuff system (Kent Scientific).2 Mice were trained to the apparatus for 5 days prior to data collection. Systolic BP and HR measurements represent the average of at least 20 tail cuff inflations per mouse each afternoon.

Series [3] has as its system wild type mice. Put plainly: Indexed heart weight after 7-day gavage treatment in uninjured mice. Format: in vivo, mouse. The note with it: for Body weight, final / Heart weight / Heart weight/tibia length / Heart/body weight: uninjured wild type mice, 7 days. As for the experimental part: as §1
Series [4] relates to atrial natriuretic peptide, beta myosin heavy chain, alpha-skeletal actin transcripts. Put plainly: qRT-PCR of molecular markers of hypertrophy in mouse hearts. Format: in vivo. The note with it: hearts of mice treated with dabuzalgron. The procedure: as §1
We used qRT-PCR to assay traditionally accepted molecular markers of hypertrophy in the hearts of mice treated with dabuzalgron. There was no change in the transcript abundance of atrial natriuretic peptide, beta myosin heavy chain, or alpha-skeletal actin. (FIG. 1C)
Total RNA was isolated from cells and tissue (QiagenRNeasy Plus mini kit #74134) and analyzed using a NanoDrop (ThermoScientific). For qRT-PCR, one […]g of RNA was reverse transcribed using High Capacity cDNA Reverse Transcription Kit (Life Technologies #4368814). Two step qRT-PCR reactions contained 2% of the cDNA product. All reactions were performed in triplicate in a Roche 480 Light Cycler. Relative quantitation of PCR products used the ΔΔCt method relative to two validated reference genes (Tbp and Polr2a). Similar efficiencies were confirmed for all primers. All probes and primers were from Roche.
In general terms: In qPCR the cycle at which signal appears reflects the starting amount.

In series [5] the test system is neonatal rat ventricular myocytes. Put plainly: Myocyte death caused by oxidative stress with H2O2. Format: cell-based. As to conditions: neonatal rat ventricular myocytes (FIG. 7).
Series [6] has as its system women. As to conditions: cited from earlier work.
Series [7] relates to pigs. As to conditions: 10 μg/kg; cited from earlier work.
The subject of series [8] is rabbits. As to conditions: 10 μg/kg; cited from earlier work.
Setting [9] is: any dose 1-100 μg/kg/day, gavage twice daily for 7 days.
Where [10] appears, read: human, 1.5 mg by mouth twice daily.

The structures appear in SMILES notation. Where two headings read alike, the source gives them in different places.

Regarding `COc1cccc2c1C(=O)c1c(O)c3c(c(O)c1C2=O)C[C@@](O)(C(=O)CO)C[C@@H]3O[C@H]1C[C@H](N)[C@H](O)[C@H](C)O1` [DOX, doxorubicin], in series [1] (mouse, in vivo), the “decrease in ATP content compared to untreated hearts” value amounted to 23±7%.

In the case of `Cc1c(OCC2=NCCN2)ccc(Cl)c1NS(C)(=O)=O` [dabuzalgron, N-[6-chloro-3-(4,5-dihydro-1H-imidazol-2-ylmethoxy)-2-methylphenyl]methanesulfonamide], in series [2], the HR vs vehicle result is listed as “no difference” and the “systolic BP vs vehicle” value is “no difference”. In series [3] (setting [9]), the “change in body weight” value is on record as “no measurable change” and the “change in heart weight” value is on record as “no measurable change”. Further, in series [3] (0.2 μg/kg/day gavage), the “Body weight, final” value is 25.3 ± 0.4 g; the Heart weight worked out at 106 ± 4 mg; the Heart weight/tibia length was 6.1 ± 0.3 mg/mm; the Heart/body weight was 0.42 ± 0.01%. In series [3] (2 μg/kg/day gavage), the “Body weight, final” value was 25.9 ± 0.8 g; the Heart weight was 106 ± 4 mg; the Heart weight/tibia length was 6.1 ± 0.2 mg/mm; the Heart/body weight stood at 0.41 ± 0.02%. For the same compound, in series [3] (20 μg/kg/day gavage), the “Body weight, final” value worked out at 27.3 ± 1.1 g; the Heart weight came to 110 ± 4 mg; the Heart weight/tibia length came to 5.9 ± 0.2 mg/mm; the Heart/body weight was determined as 0.41 ± 0.01%. Further, in series [3] (200 μg/kg/day gavage), the “Body weight, final” value was 27.4 ± 1.6 g; the Heart weight amounted to 113 ± 6 mg; the Heart weight/tibia length came out at 6.1 ± 0.3 mg/mm; the Heart/body weight came to 0.41 ± 0.01%. In addition, in series [4], the “transcript abundance of alpha-skeletal actin” value was “no change”, the “transcript abundance of atrial natriuretic peptide” value is “no change” and the “transcript abundance of beta myosin heavy chain” value is reported as “no change”. In series [1] (hearts of DOX-treated mice), the ATP content entry is on record as “restored”. Also, the ATP content entry in series [1] (uninjured mice) was “did not affect”. Besides, the “myocyte death caused by oxidative stress with H2O2” value in series [5] is “prevents”. Also, in series [6] (setting [10]), the BP entry was “did not alter” and the HR result is reported as “did not alter”. Also, in series [6] (interim analysis of the Phase 2 trials), the “difference in urinary incontinence between dabuzalgron and placebo groups” value was “no clinically meaningful difference”. Moreover, the “changes in BP” value in series [6] (subjects who received dabuzalgron in any of these trials) is reported as “no significant changes”. Besides, in series [6] (total of 1,223 women, Phase 1, two Phase 2 trials and open-label study), the tolerability result is “well tolerated”. In series [7], the “effect on BP” value was “no effect”. Moreover, the “effect on BP” value in series [8] was “no effect”.
